In patent US9314540B2, “Compounds for use in imaging, diagnosing and/or treatment of diseases of the central nervous system” (PIRAMAL IMAGING SA, priority 2010, dated 2016):

What was measured:
[1] = Biodistribution in NMRI mice, brain radioactivity by gamma counter; type: in vivo; details: for brain uptake of radioactivity (peak): 2 min p.i.
Experimental: FIG. 1: Distribution of [^18F] D2 Deprenyl (compound of Example 3) detected via a gamma-detector is shown in a time frame of 4 hours in mouse brains (n=3).
Biodistribution of [^18F] D2 Deprenyl (compound of Example 3) was investigated in NMRI mice weighing 31.1-38.5 g at seven time points. For each time point 3 mice were used. The mice were injected each with 0.256 MBq [^18F] D2 Deprenyl. After the respective time points the mice were sacrificed, the organs taken out and measured in a gamma counter. The results were decay corrected. […] Unexpectedly, the elimination ratio defined by peak uptake at 2 min to uptake at 30 min was 4.2 times. This is improved over the non-deuterated compound where said ratio was 3.6 (Peak: 7.5±0.04% ID/g at 2 min p.i. and 2.10±0.33% ID/g at 30 min p.i.) and will add to a better brain image quality. Therefore, an improved diagnostic performance can be expected.

[2] = In vitro metabolite profile in liver microsomes and hepatocytes (LC/MS); type: in vitro ADME, rat, mouse and human; details: for oxidation at the propargyl moiety (M-7) as additional metabolic pathway: microsome and hepatocyte incubations; for major metabolic pathway: rat, mouse and human liver microsomes, human and rat hepatocytes
Source text: FIG. 9: In vitro metabolite pathways in rat, mouse, dog, monkey and human microsomes and rat and human heaptocyte preparations. The metabolites were detected by LC/MS. (a) Metabolite pathways of non-deuterated [^18F] Deprenyl and (b) Metabolite pathways of [^18F] D2 Deprenyl.
[^18F] D2 Deprenyl and [^19F] D2 Deprenyl have been investigated regarding their metabolic properties in vitro and in vivo. […] D2 Deprenyl (FIG. 9).

[3] = Plasma radioactivity and metabolite profile over time in cynomolgus monkey plasma; type: in vivo
Source text: D2 Deprenyl and non-deuterated [^18F] Deprenyl in cynomolgus monkey plasma.
D2 Deprenyl and (b) non-deuterated [^18F] Deprenyl in cynomolgus monkey plasma. The time course of the parent compounds as well as metabolites expressed in [area %] generated from respective HPLC chromatograms are shown.
Plasma radioactivity metabolic profiles have been monitored over time for [^18F] D2 Deprenyl compared to the non-deuterated [^18F] Deprenyl in cynomolgus monkey plasma (FIG. 3). […] D2 Deprenyl in plasma the radioactivity for [^18F] D2 Deprenyl was 18% and 31% higher as observed for [^18F] Deprenyl at the 30 and 60 min time points, respectively (FIG. 3). In addition, metabolites occurring in cynomolgus monkey plasma over time have been monitored for both ligands (FIG. 4). […] Deprenyl. Specifically metabolite M1 was less produced (FIG. 4a). In addition, time activity curves (TAC) of [^18F] […] This gives more flexibility regarding quantification of the PET data and is, thus, an advantage.

human MAO-B = target: T1, human MAO-B (Homo sapiens, UniProt P27338); test: Amplex Red Monoamine Oxidase Assay-Kit, MAO-B affinity; type: biochemical; details: human MAO-B from baculovirus-infected insect cells; read-out: affinity towards MAO-B, IC50
T1 construct: purchased Sigma; host or cells: insect cells infected with recombinant baculovirus
T1 sequence (P27338 1-520): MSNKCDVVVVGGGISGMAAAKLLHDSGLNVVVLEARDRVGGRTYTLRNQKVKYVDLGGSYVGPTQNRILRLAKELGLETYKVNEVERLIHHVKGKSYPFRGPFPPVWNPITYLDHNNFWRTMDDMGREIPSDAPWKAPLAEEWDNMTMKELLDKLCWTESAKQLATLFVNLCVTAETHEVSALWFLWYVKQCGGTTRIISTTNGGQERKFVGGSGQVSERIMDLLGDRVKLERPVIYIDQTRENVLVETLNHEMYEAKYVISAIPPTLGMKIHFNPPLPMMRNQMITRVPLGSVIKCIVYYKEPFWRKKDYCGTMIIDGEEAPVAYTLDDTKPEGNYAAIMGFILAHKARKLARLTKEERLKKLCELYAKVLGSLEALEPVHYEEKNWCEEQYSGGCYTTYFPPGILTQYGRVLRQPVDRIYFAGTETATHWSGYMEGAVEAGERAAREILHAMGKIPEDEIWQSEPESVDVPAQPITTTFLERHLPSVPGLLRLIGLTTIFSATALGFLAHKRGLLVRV
Experimental: [^19F] […] This was determined by incubating human MAO-B prepared from insect cells infected with recombinant baculovirus containing respective cDNA inserts (Sigma) with respective reagents of the Amplex Red Monoamine Oxidase Assay-Kit (Molecular Probes).

MAO-A = target: T2, MAO-A (Homo sapiens, UniProt P21397); test: Amplex Red Monoamine Oxidase Assay-Kit, MAO-A affinity; type: biochemical; details: read-out: affinity towards MAO-A
T2 sequence (P21397 1-527): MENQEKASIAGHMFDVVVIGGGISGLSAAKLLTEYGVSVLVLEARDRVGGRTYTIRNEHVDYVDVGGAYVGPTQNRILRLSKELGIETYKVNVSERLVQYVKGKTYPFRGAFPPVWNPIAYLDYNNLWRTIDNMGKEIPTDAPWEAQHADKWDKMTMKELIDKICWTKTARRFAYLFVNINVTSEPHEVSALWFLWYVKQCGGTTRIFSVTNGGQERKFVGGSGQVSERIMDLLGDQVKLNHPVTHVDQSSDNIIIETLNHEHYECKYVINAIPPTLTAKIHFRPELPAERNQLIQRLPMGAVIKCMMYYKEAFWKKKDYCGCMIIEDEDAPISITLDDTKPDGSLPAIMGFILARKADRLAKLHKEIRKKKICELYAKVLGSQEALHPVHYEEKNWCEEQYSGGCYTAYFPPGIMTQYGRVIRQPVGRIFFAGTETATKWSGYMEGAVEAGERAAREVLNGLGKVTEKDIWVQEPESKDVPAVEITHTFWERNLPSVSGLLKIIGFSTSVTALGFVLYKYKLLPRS

| SMILES | elimination ratio, peak uptake at 2 min to uptake at 30 min [1] | brain uptake of radioactivity (peak) [1] [% ID/g] | brain radioactivity ([1]; 30 min p.i.) [% ID/g] | oxidation at the propargyl moiety (M-7) as additional metabolic pathway [2] | major metabolic pathway [2] | brain radioactivity ([1]; 4 hours p.i.) [% ID/g] | formation of metabolite M1 compared to non-deuterated [18F] Deprenyl [3] | stability in plasma compared to non-deuterated [18F] Deprenyl [3] | plasma radioactivity higher than for [18F] Deprenyl ([3]; 30 min) [%] | plasma radioactivity higher than for [18F] Deprenyl ([3]; 60 min) [%] | IC50 (human MAO-B) [µM] | IC50 (MAO-A) [µM] |
| --- | --- | --- | --- | --- | --- | --- | --- | --- | --- | --- | --- | --- |
| C#CCN(C)[C@H](C[18F])Cc1ccccc1 [non-deuterated compound, reference compound] | 3.6 | 7.5±0.04 | 2.10±0.33 | observed | N-dealkylation | – | – | – | – | – | – | – |
| [2H]C([2H])(C#C)N(C)[C@H](CF)Cc1ccccc1 [[^18F] D2 Deprenyl, N-[(2S)-1-[^18F]fluoro-3-phenylpropan-2-yl]-N-methyl(1,1-^2H2)— prop-2-yn-1-amine] | 4.2 | 6.03±1.09 | 1.44±0.15 | – | – | 0.91±0.09 | less produced | more stable | 18 | 31 | – | – |
| [2H]C([2H])(C#C)N(C)[C@H](CF)Cc1ccccc1 [[^19F] D2 Deprenyl, N-[(2S)-1-fluoro-3-phenylpropan-2-yl]-N-methyl(1,1-^2H)prop-2-yn-1-amine] | – | – | – | not detectable any more | N-dealkylation | – | – | – | – | – | 0.0413 | > 2 |
